Here are results for three compounds from ChEMBL document CHEMBL5126604, “Design, Synthesis, and Biological Evaluation of Pyrrole-2-carboxamide Derivatives as Mycobacterial Membrane Protein Large 3 Inhibitors for Treating Drug-Resistant Tuberculosis” (J Med Chem, 2022).

Some results are limits rather than exact numbers.

The test system of assay [1] is Mycobacterium tuberculosis. The assay is described as follows: microbe, parasite or virus in culture. To be noted: Mycobacterium tuberculosis, 13946, 168 h.
For assay [2], the system named is Mycobacterium tuberculosis. Kind of assay: microbe, parasite or virus in culture. To be noted: Mycobacterium tuberculosis, 14862, 168 h.

As to `O=C(NC12CC3CC(CC(C3)C1)C2)c1cc(-c2ccc(F)cc2F)c[nH]1`, the MIC in assay [1] and in assay [2] was less than 0.016 µg/mL throughout.
With `O=C(NC12CC3CC(CC(C3)C1)C2)c1cc(-c2ccc(F)nc2F)c[nH]1`, the MIC in assay [1] and in assay [2] was less than 0.016 µg/mL in each case.
Take `O=C(NC1C2CC3CC(C2)CC1C3)c1cc(-c2ccc(F)nc2F)c[nH]1` (stereo unspecified): the MIC in assay [1] and in assay [2] was less than 0.016 µg/mL each time.
